From ChEMBL document CHEMBL2169792, “Synthesis of new 4-thiazolidinone-, pyrazoline-, and isatin-based conjugates with promising antitumor activity” (J Med Chem, 2012)
Active and inactive are the calls of the source. The rule behind the calls is not given here.

Assays:
786-0 = test: Cytotoxicity against human 786-0 cells assessed as cell growth at 10 uM after 48 hrs by SRB assay; type: functional; conditions: 786-0, 48 h, read-out: Activity
[1] = Cytotoxicity against human CNS cancer cells after 48 hrs by SRB assay; type: functional; conditions: Cancer cell lines
[2] = Cytotoxicity against human breast cancer cells after 48 hrs by SRB assay; type: functional; conditions: Cancer cell lines
[3] = Cytotoxicity against human non-small cell lung cancer cells after 48 hrs by SRB assay; type: functional; conditions: Cancer cell lines; for CC50: read-out: LC50 (the source's name)
OVCAR-4 = test: Cytotoxicity against human OVCAR4 cells assessed as cell growth at 10 uM after 48 hrs by SRB assay; type: functional; conditions: OVCAR-4, 48 h, read-out: Activity
[4] = Cytotoxicity against human renal cancer cells after 48 hrs by SRB assay; type: functional; conditions: Cancer cell lines
[5] = Cytotoxicity against human colon cancer cells after 48 hrs by SRB assay; type: functional; conditions: Cancer cell lines
[6] = Cytotoxicity against human ovarian cancer cells after 48 hrs by SRB assay; type: functional; conditions: Cancer cell lines
[7] = Cytotoxicity against human melanoma cells after 48 hrs by SRB assay; type: functional; conditions: Melanoma cell; for CC50: read-out: LC50 (the source's name)
[8] = Cytotoxicity against human prostate cancer cells after 48 hrs by SRB assay; type: functional; conditions: Cancer cell lines
[9] = Cytotoxicity against human leukemia cells after 48 hrs by SRB assay; type: functional; conditions: Leukemia cell; for CC50: read-out: LC50 (the source's name)
SNB-75 = test: Cytotoxicity against human SNB75 cells assessed as cell growth at 10 uM after 48 hrs by SRB assay; type: functional; conditions: SNB-75, 48 h, read-out: Activity
HL-60(TB) = test: Cytotoxicity against human HL-60(TB) cells assessed as cell growth at 10 uM after 48 hrs by SRB assay; type: functional; conditions: HL-60, 48 h, read-out: Activity
[10] = Toxicity in mouse; type: organism-based; conditions: in vivo
SF-539 = test: Cytotoxicity against human SF539 cells assessed as cell growth at 10 uM after 48 hrs by SRB assay; type: functional; conditions: SF-539, 48 h, read-out: Activity
Mus musculus = test: Antitumor activity in ip dosed athymic nude mouse hollow fiber model assessed as reduction of viable cell mass; type: functional, organism-based
OVCAR-3 = test: Cytotoxicity against human OVCAR3 cells assessed as cell growth at 10 uM after 48 hrs by SRB assay; type: functional; conditions: OVCAR-3, 48 h, read-out: Activity
MOLT-4 = test: Cytotoxicity against human MOLT4 cells assessed as cell growth at 10 uM after 48 hrs by SRB assay; type: functional; conditions: MOLT-4, 48 h, read-out: Activity
TK-10 = test: Cytotoxicity against human TK10 cells assessed as cell growth at 10 uM after 48 hrs by SRB assay; type: functional; conditions: TK-10, 48 h, read-out: Activity
SK-MEL-5 = test: Cytotoxicity against human SK-MEL-5 cells assessed as cell growth at 10 uM after 48 hrs by SRB assay; type: functional; conditions: SK-MEL-5, 48 h, read-out: Activity

| SMILES | GI50 [1] | LC50 (concentration giving 50% net cell kill) [1] | TGI [1] | GI50 [2] | LC50 (concentration causing 50% net cell kill) [2] | TGI [2] | GI50 [3] | TGI [3] | CC50 [3] | GI50 [4] | LC50 [4] | TGI [4] | GI50 [5] | LC50 (concentration lethal to 50% of cells) [5] | TGI [5] | GI50 [6] | LC50 (concentration causing 50% net cell kill) [6] | TGI [6] | GI50 [7] | TGI [7] | also measured |
| --- | --- | --- | --- | --- | --- | --- | --- | --- | --- | --- | --- | --- | --- | --- | --- | --- | --- | --- | --- | --- | --- |
| O=C1Nc2ccc(Br)cc2C1n1nc(-c2ccccc2)cc1-c1ccc(Cl)cc1 (configuration not stated) |  |  |  |  |  |  |  |  |  |  |  |  |  |  |  |  |  |  |  |  | growth at 10 µM (786-0): 90.1% |
| O=C1Nc2ccc(Br)cc2C1n1nc(-c2ccc3ccccc3c2)cc1-c1ccc(Cl)cc1 (configuration not stated) | 3.18 µM | 33.3 µM | 10.5 µM | 4.3 µM | 62.1 µM | 14.3 µM | 3.31 µM | 10 µM | 34.5 µM | 2.5 µM | 27.2 µM | 7.66 µM | 4.33 µM | 51.1 µM | 15 µM | 3.09 µM | 33.2 µM | 9.85 µM | 6.53 µM | 22.4 µM | growth at 10 µM (OVCAR-4): 58.5%; CC50 [7]: 56.8 µM; GI50 [8]: 2.57 µM; LC50 [8]: 34.4 µM; TGI [8]: 8.89 µM; GI50 [9]: 10.4 µM; TGI [9]: 15.2 µM; CC50 [9]: 79.2 µM |
| O=C(O)CN1C(=O)C(n2nc(-c3ccccc3)cc2-c2ccccc2O)c2ccccc21 (configuration not stated) |  |  |  |  |  |  |  |  |  |  |  |  |  |  |  |  |  |  |  |  | growth at 10 µM (SNB-75): 108% |
| CN(C)c1ccc(-c2cc(-c3ccccc3)nn2C2C(=O)Nc3ccccc32)cc1 (configuration not stated) | 21.2 µM | 95.1 µM | 68.7 µM | 20.8 µM | 90.1 µM | 73.4 µM | 16.2 µM | 56 µM | 90.9 µM | 17.4 µM | 86.2 µM | 57.3 µM | 16.1 µM | 79 µM | 39.7 µM | 18.9 µM | 93.3 µM | 67.2 µM | 19.6 µM | 54.5 µM | CC50 [7]: 91.2 µM; GI50 [8]: 16.1 µM; LC50 [8]: 100 µM; TGI [8]: 74 µM; growth at 10 µM (HL-60(TB)): 70.9%; GI50 [9]: 16.3 µM; TGI [9]: 74.6 µM; CC50 [9]: 100 µM |
| COc1ccc(C2CC(c3ccccc3)=NN2C2=NC(=O)/C(=C3\C(=O)Nc4ccc(Br)cc43)S2)cc1 (configuration not stated) | 0.18 µM | 6.48 µM | 0.39 µM | 0.2 µM | 26.5 µM | 0.48 µM | 0.2 µM | 0.51 µM | 3.27 µM | 0.18 µM | 1.27 µM | 0.36 µM | 0.19 µM | 1.07 µM | 0.39 µM | 0.23 µM | 23.4 µM | 3.63 µM | 0.21 µM | 0.55 µM | MTD [10]: > 400 mg/kg; growth at 10 µM (SF-539): -55.1%; CC50 [7]: 5.01 µM; Activity (Mus musculus): inactive; GI50 [8]: 0.24 µM; LC50 [8]: 39.5 µM; TGI [8]: 0.66 µM; GI50 [9]: 0.25 µM; TGI [9]: 4.23 µM; CC50 [9]: 51 µM |
| COc1ccc(C2CC(c3ccccc3)=NN2C2=NC(=O)/C(=C3\C(=O)Nc4ccccc43)S2)cc1 (configuration not stated) | 1.62 µM | 7.39 µM | 3.45 µM | 2.02 µM | 39 µM | 4.58 µM | 2.38 µM | 6.04 µM | 70.8 µM | 2.01 µM | 34.3 µM | 4.27 µM | 1.81 µM | 32 µM | 4.39 µM | 2.3 µM | 71.1 µM | 19 µM | 2 µM | 4.51 µM | CC50 [7]: 38 µM; growth at 10 µM (OVCAR-3): -51.4%; GI50 [8]: 1.52 µM; LC50 [8]: 7.37 µM; TGI [8]: 3.35 µM; GI50 [9]: 1.64 µM; TGI [9]: 20.8 µM; CC50 [9]: 93 µM |
| COc1ccc(C2=NN(C3=NC(=O)/C(=C4\C(=O)Nc5ccccc54)S3)C(c3ccc(Cl)cc3)C2)cc1 (configuration not stated) | 77.5 µM | 100 µM | 100 µM | 100 µM | 100 µM | 100 µM | 92.4 µM | 100 µM | 100 µM | 100 µM | 100 µM | 100 µM | 100 µM | 100 µM | 100 µM | 100 µM | 100 µM | 100 µM | 100 µM | 100 µM | MTD [10]: > 400 mg/kg; CC50 [7]: 100 µM; Activity (Mus musculus): inactive; growth at 10 µM (OVCAR-3): 77.5%; GI50 [8]: 100 µM; LC50 [8]: 100 µM; TGI [8]: 100 µM; GI50 [9]: 86.5 µM; TGI [9]: 90.9 µM; CC50 [9]: 100 µM |
| COc1ccc(-c2cc(-c3ccc4ccccc4c3)nn2C2C(=O)Nc3ccccc32)cc1 (configuration not stated) |  |  |  |  |  |  |  |  |  |  |  |  |  |  |  |  |  |  |  |  | growth at 10 µM (OVCAR-4): 91.5% |
| COc1ccc(-c2cc(-c3ccc4ccccc4c3)nn2C2C(=O)Nc3ccc(Cl)cc32)cc1 (configuration not stated) |  |  |  |  |  |  |  |  |  |  |  |  |  |  |  |  |  |  |  |  | growth at 10 µM (MOLT-4): 98.2% |
| COc1ccc(C2CC(c3ccccc3)=NN2C2=NC(=O)/C(=C3\C(=O)N(CC(=O)O)c4ccccc43)S2)cc1 (configuration not stated) |  |  |  |  |  |  |  |  |  |  |  |  |  |  |  |  |  |  |  |  | growth at 10 µM (TK-10): 97.3% |
| O=C1N=C(N2N=C(c3ccccc3)CC2c2ccccc2O)S/C1=C1/C(=O)Nc2ccc(Br)cc21 (configuration not stated) | 0.24 µM | 4.12 µM | 0.72 µM | 0.26 µM | 3.59 µM | 0.8 µM | 0.24 µM | 0.67 µM | 7.24 µM | 0.23 µM | 2.55 µM | 0.63 µM | 0.21 µM | 1.67 µM | 0.46 µM | 0.28 µM | 19 µM | 0.94 µM | 0.23 µM | 0.66 µM | growth at 10 µM (SK-MEL-5): -53.9%; CC50 [7]: 2.43 µM; GI50 [8]: 0.29 µM; LC50 [8]: 7.68 µM; TGI [8]: 0.93 µM; GI50 [9]: 0.27 µM; TGI [9]: 1.05 µM; CC50 [9]: 9.49 µM |
